Data from PubChem BioAssay (NCI).
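Grown in 96-well plates, cells were treated for 48 hours with each compound at five concentrations. Insufficient inhibition: endpoint recorded as highest concentration tested. Abbreviation: GI50, concentration required for 50% inhibition of growth. Definition used: TGI = concentration required for complete inhibition of growth.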

Assays:
Assay in all cases: DTP human tumour cell line panel, 48 h; in the data active = GI50 below about 0.43 µM; inactive = the rest
[1] = tested on: 786-0 renal
[2] = tested on: A498 renal
[3] = tested on: A549 NSCLC
[4] = tested on: ACHN renal
[5] = tested on: BT-549 breast
[6] = tested on: CAKI-1 renal
[7] = tested on: CCRF-CEM leukemia
[8] = tested on: COLO 205 colon
[9] = tested on: DU-145 prostate
[10] = tested on: EKVX NSCLC
[11] = tested on: HCC-2998 colon
[12] = tested on: HCT-116 colon
[13] = tested on: HCT-15 colon
[14] = tested on: HL-60(TB) leukemia
[15] = tested on: HOP-62 NSCLC
[16] = tested on: HOP-92 NSCLC
[17] = tested on: HS 578T breast
[18] = tested on: HT29 colon
[19] = tested on: IGROV1 ovarian
[20] = tested on: K-562 leukemia
[21] = tested on: KM12 colon
[22] = tested on: LOX IMVI melanoma
[23] = tested on: M14 melanoma
[24] = tested on: MALME-3M melanoma
[25] = tested on: MCF7 breast
[26] = tested on: MDA-MB-231 breast
[27] = tested on: MDA-MB-435
[28] = tested on: MOLT-4 leukemia
[29] = tested on: NCI-H226 lung
[30] = tested on: NCI-H23 lung
[31] = tested on: NCI-H460 lung
[32] = tested on: NCI-H522 lung
[33] = tested on: NCI/ADR-RES ovarian
[34] = tested on: OVCAR-3 ovarian
[35] = tested on: OVCAR-4 ovarian
[36] = tested on: OVCAR-5 ovarian
[37] = tested on: OVCAR-8 ovarian
[38] = tested on: PC-3 prostate
[39] = tested on: RPMI-8226 leukemia
[40] = tested on: RXF 393 renal
[41] = tested on: SF-268 CNS
[42] = tested on: SF-295 CNS
[43] = tested on: SF-539 CNS
[44] = tested on: SK-MEL-2 melanoma
[45] = tested on: SK-MEL-28 melanoma
[46] = tested on: SK-MEL-5 melanoma
[47] = tested on: SK-OV-3 ovarian
[48] = tested on: SN12C renal
[49] = tested on: SNB-19 CNS
[50] = tested on: SNB-75 CNS
[51] = tested on: SW-620 colon
[52] = tested on: T-47D breast
[53] = tested on: TK-10 renal
[54] = tested on: U251 CNS
[55] = tested on: UACC-257 melanoma
[56] = tested on: UACC-62 melanoma
[57] = tested on: UO-31 renal

O=c1c2sc(=S)n(-c3ccc(F)cc3)c2ncn1Cc1ccc(F)cc1F
> 100 µM: TGI [1] | TGI [2] | TGI [3] | TGI [4] | TGI [5] | TGI [6] | TGI [7] | TGI [8] | TGI [9] | TGI [10] | TGI [11] | TGI [12] | TGI [13] | TGI [14] | TGI [15] | TGI [16] | TGI [17] | TGI [18] | TGI [19] | TGI [20] | TGI [21] | TGI [22] | TGI [23] | TGI [24] | TGI [25] | TGI [26] | TGI [27] | TGI [28] | TGI [29] | TGI [30] | TGI [31] | TGI [32] | TGI [33] | TGI [34] | TGI [35] | TGI [36] | TGI [37] | TGI [38] | TGI [39] | TGI [40] | TGI [41] | TGI [42] | TGI [43] | TGI [44] | TGI [45] | TGI [46] | TGI [47] | TGI [48] | TGI [49] | TGI [50] | TGI [51] | TGI [52] | TGI [53] | TGI [54] | TGI [55] | TGI [56] | TGI [57]
inactive: GI50 [1] 80.5 µM | GI50 [2] > 100 µM | GI50 [3] 92.1 µM | GI50 [4] > 100 µM | GI50 [5] > 100 µM | GI50 [6] 37.7 µM | GI50 [7] > 100 µM | GI50 [8] > 100 µM | GI50 [9] > 100 µM | GI50 [10] > 100 µM | GI50 [11] > 100 µM | GI50 [12] 81.8 µM | GI50 [13] > 100 µM | GI50 [14] > 100 µM | GI50 [15] > 100 µM | GI50 [16] 44.8 µM | GI50 [17] 78.8 µM | GI50 [18] > 100 µM | GI50 [19] > 100 µM | GI50 [20] > 100 µM | GI50 [21] > 100 µM | GI50 [22] > 100 µM | GI50 [23] > 100 µM | GI50 [24] > 100 µM | GI50 [25] 67.7 µM | GI50 [26] > 100 µM | GI50 [27] > 100 µM | GI50 [28] > 100 µM | GI50 [29] > 100 µM | GI50 [30] > 100 µM | GI50 [31] > 100 µM | GI50 [32] > 100 µM | GI50 [33] > 100 µM | GI50 [34] > 100 µM | GI50 [35] > 100 µM | GI50 [36] > 100 µM | GI50 [37] > 100 µM | GI50 [38] 80.8 µM | GI50 [39] > 100 µM | GI50 [40] > 100 µM | GI50 [41] 76 µM | GI50 [42] 81.9 µM | GI50 [43] > 100 µM | GI50 [44] > 100 µM | GI50 [45] > 100 µM | GI50 [46] 84.3 µM | GI50 [47] > 100 µM | GI50 [48] > 100 µM | GI50 [49] 75.8 µM | GI50 [50] 94 µM | GI50 [51] > 100 µM | GI50 [52] > 100 µM | GI50 [53] 96 µM | GI50 [54] > 100 µM | GI50 [55] > 100 µM | GI50 [56] > 100 µM | GI50 [57] > 100 µM

CCCCCCCCCCCCOC1C(C(COC2OC(C3COC(C)(C)O3)C3OC(C)(C)OC23)NC(=O)Nc2ccc(C(=O)O)cc2)OC2OC(C)(C)OC21 (stereo not drawn)
5.45 µM: TGI [14]
14.6 µM: TGI [49]
13.7 µM: TGI [41]
4.98 µM: TGI [26]
7.91 µM: TGI [27]
24 µM: TGI [47]
6.7 µM: TGI [13]
6.83 µM: TGI [30]
24.8 µM: TGI [33]
11 µM: TGI [51]
4.36 µM: TGI [21]
5.89 µM: TGI [31]
12.2 µM: TGI [4]
> 100 µM: TGI [20]
3.39 µM: TGI [43]
inactive: GI50 [1] 2.24 µM | GI50 [2] 2.48 µM | GI50 [3] 3.34 µM | GI50 [4] 3.56 µM | GI50 [5] 1.79 µM | GI50 [6] 5.45 µM | GI50 [8] 2.71 µM | GI50 [9] 3.07 µM | GI50 [10] 2.69 µM | GI50 [11] 2.05 µM | GI50 [12] 2.87 µM | GI50 [13] 2.63 µM | GI50 [14] 2.12 µM | GI50 [15] 3.07 µM | GI50 [16] 2.55 µM | GI50 [17] 3.46 µM | GI50 [18] 2.01 µM | GI50 [19] 2.11 µM | GI50 [20] 3.79 µM | GI50 [21] 2.22 µM | GI50 [22] 3.23 µM | GI50 [23] 2.45 µM | GI50 [24] 2.88 µM | GI50 [25] 2.84 µM | GI50 [26] 1.99 µM | GI50 [27] 2.63 µM | GI50 [28] 3.29 µM | GI50 [29] 3.45 µM | GI50 [30] 2.64 µM | GI50 [31] 2.45 µM | GI50 [32] 2.56 µM | GI50 [33] 10.9 µM | GI50 [34] 2.48 µM | GI50 [35] 3.56 µM | GI50 [36] 2.67 µM | GI50 [37] 3.13 µM | GI50 [38] 2.6 µM | GI50 [39] 1.69 µM | GI50 [40] 2.26 µM | GI50 [41] 3.37 µM | GI50 [42] 2.15 µM | GI50 [43] 1.72 µM | GI50 [44] 2.23 µM | GI50 [45] 3.16 µM | GI50 [46] 1.75 µM | GI50 [47] 11.7 µM | GI50 [48] 3.45 µM | GI50 [49] 4.41 µM | GI50 [50] 2.47 µM | GI50 [51] 3.26 µM | GI50 [52] 3.39 µM | GI50 [53] 4.13 µM | GI50 [54] 3.3 µM | GI50 [55] 2.38 µM | GI50 [56] 1.8 µM | GI50 [57] 3.99 µM
7.49 µM: TGI [34]
10.8 µM: TGI [10] | TGI [12] | TGI [25] | TGI [50]
13.3 µM: TGI [57]
6.85 µM: TGI [36]
8.34 µM: TGI [28]
13.2 µM: TGI [17]
8.04 µM: TGI [16]
13 µM: TGI [45]
10.4 µM: TGI [15]
6.71 µM: TGI [23]
6.93 µM: TGI [32]
15.3 µM: TGI [35]
10.3 µM: TGI [22]
19.2 µM: TGI [29]
3.82 µM: TGI [11]
14.4 µM: TGI [53]
7.58 µM: TGI [38]
11.1 µM: TGI [54]
6.88 µM: TGI [18]
9.05 µM: TGI [8]
3.4 µM: TGI [46]
10.9 µM: TGI [3]
9.79 µM: TGI [9]
13.5 µM: TGI [52]
8.53 µM: TGI [2]
12.4 µM: TGI [48]
4.05 µM: TGI [40]
5.69 µM: TGI [42]
4.82 µM: TGI [44]
4.29 µM: TGI [39]
4.87 µM: TGI [19]
17.6 µM: TGI [6]
0.577 µM: TGI [7]
3.56 µM: TGI [56]
4.59 µM: TGI [5]
12 µM: TGI [37]
6.91 µM: TGI [24]
5.49 µM: TGI [1]
active: GI50 [7] 0.306 µM
5.79 µM: TGI [55]
